In ChEMBL document CHEMBL1201862, “PubChem BioAssay data set” (2004):
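Briefly, cells in 96-well plates were exposed to five compound concentrations for 48 h, and endpoints were estimated by linear interpolation. At the GI50, growth is halved.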 Active and inactive are the calls of the source. Rule as the data show it: active = GI50 up to about 1.1 µM and inactive = higher.

Assays:
Test in all cases: DTP human tumour cell line panel, 48 h
K562 = test system: K562
HL-60 = test system: HL-60
RPMI-8226 = test system: RPMI-8226
U-251 = test system: U-251
NCI-H522 = test system: NCI-H522
SK-MEL-2 = test system: SK-MEL-2
Malme-3M = test system: Malme-3M
EKVX = test system: EKVX
SK-OV-3 = test system: SK-OV-3
IGROV-1 = test system: IGROV-1
OVCAR-4 = test system: OVCAR-4
XF498 = test system: XF498
SNB-78 = test system: SNB-78
SK-MEL-5 = test system: SK-MEL-5
M19-MEL = test system: M19-MEL
A549 = test system: A549
HCC 2998 = test system: HCC 2998
SF-539 = test system: SF-539

Measured: GI50

CCc1cccc(C(C)C)c1NC(=O)C(=O)C(C(=O)C(=O)OC)c1nc2ccccc2nc1O (stereo unspecified)
inactive: K562 > 100 µM | HL-60 > 100 µM | RPMI-8226 > 100 µM | U-251 > 100 µM | NCI-H522 > 100 µM | SK-MEL-2 > 100 µM | Malme-3M > 100 µM | EKVX 44.7 µM | SK-OV-3 > 100 µM | IGROV-1 > 100 µM | OVCAR-4 > 100 µM | XF498 > 100 µM | SNB-78 > 100 µM | SK-MEL-5 > 100 µM | M19-MEL > 100 µM | A549 > 100 µM | HCC 2998 > 100 µM

Cc1cccc(C)c1NC(=O)/C(=N/NC(N)=S)C(C)C(=O)c1ccc(Cl)cc1 (stereo unspecified)
inactive: K562 > 100 µM | SF-539 > 100 µM | HL-60 93.8 µM | RPMI-8226 > 100 µM | U-251 > 100 µM | NCI-H522 89.9 µM | SK-MEL-2 > 100 µM | Malme-3M > 100 µM | EKVX > 100 µM | SK-OV-3 > 100 µM | IGROV-1 > 100 µM | OVCAR-4 78.5 µM | XF498 > 100 µM | SNB-78 > 100 µM | SK-MEL-5 > 100 µM | M19-MEL > 100 µM | A549 > 100 µM | HCC 2998 > 100 µM

C=CCN1COc2c(cc3c4c(cccc24)C(=O)O3)C1
inactive: K562 15.5 µM | HL-60 21.4 µM | RPMI-8226 33.6 µM | U-251 > 100 µM | NCI-H522 14.1 µM | SK-MEL-2 > 100 µM | Malme-3M > 10 µM | EKVX 35.7 µM | SK-OV-3 > 100 µM | IGROV-1 > 100 µM | OVCAR-4 68.1 µM | XF498 20.2 µM | SK-MEL-5 44.1 µM | M19-MEL 18.7 µM | A549 > 100 µM | HCC 2998 > 100 µM

COc1ccc2cc3[n+](cc2c1OC)CCc1cc(O)c(O)cc1-3
inactive: K562 > 100 µM | SF-539 > 100 µM | HL-60 > 100 µM | RPMI-8226 > 100 µM | U-251 > 100 µM | NCI-H522 > 100 µM | Malme-3M > 100 µM | EKVX > 100 µM | SK-OV-3 > 100 µM | IGROV-1 > 100 µM | OVCAR-4 > 100 µM | XF498 > 100 µM | SNB-78 > 100 µM | SK-MEL-5 > 100 µM | M19-MEL > 100 µM | A549 > 100 µM

CCCc1cc(OC(=O)c2c(O)cc(OC)cc2CCC)cc(O)c1C(=O)O
inactive: K562 32.5 µM | SF-539 18 µM | HL-60 23 µM | RPMI-8226 24.2 µM | U-251 23.9 µM | NCI-H522 16 µM | SK-MEL-2 20.5 µM | Malme-3M 17.5 µM | EKVX 26.2 µM | SK-OV-3 22.4 µM | IGROV-1 47.9 µM | XF498 25.9 µM | SNB-78 25 µM | M19-MEL 42.8 µM | A549 30.2 µM | HCC 2998 25.2 µM

N#C/C(=C\c1cccc(Cl)c1Cl)c1ccccc1
inactive: K562 > 72.4 µM | SF-539 35.1 µM | HL-60 > 100 µM | RPMI-8226 > 61.9 µM | U-251 36.2 µM | NCI-H522 52.8 µM | SK-MEL-2 47.1 µM | Malme-3M > 48.2 µM | EKVX > 69.5 µM | SK-OV-3 45.7 µM | IGROV-1 33.7 µM | OVCAR-4 61.5 µM | XF498 > 42.3 µM | SNB-78 50.2 µM | SK-MEL-5 65.3 µM | M19-MEL > 84.3 µM | A549 66.8 µM | HCC 2998 > 79.3 µM

O=[PH](O)c1cc2c3ccccc3ccc2c2ccccc12
inactive: K562 > 100 µM | SF-539 > 100 µM | HL-60 > 100 µM | RPMI-8226 > 100 µM | U-251 > 100 µM | NCI-H522 > 100 µM | EKVX > 100 µM | SK-OV-3 > 100 µM | IGROV-1 > 100 µM | OVCAR-4 > 100 µM | XF498 67.3 µM | SNB-78 > 100 µM | SK-MEL-5 > 100 µM | M19-MEL > 100 µM | A549 > 100 µM | HCC 2998 > 100 µM

CCOC(=O)c1oc2ccc(OC)c3c2c1CCC3
inactive: K562 55 µM | SF-539 > 100 µM | HL-60 > 100 µM | RPMI-8226 > 100 µM | U-251 > 100 µM | NCI-H522 67.3 µM | SK-MEL-2 > 100 µM | Malme-3M > 100 µM | EKVX > 100 µM | SK-OV-3 > 100 µM | IGROV-1 > 100 µM | OVCAR-4 51.6 µM | XF498 > 100 µM | SNB-78 > 100 µM | SK-MEL-5 84.7 µM | M19-MEL > 100 µM | A549 > 100 µM | HCC 2998 > 100 µM

Cc1ccc2c(c1)CNc1ccc(C)cc1CN2
inactive: K562 > 100 µM | SF-539 > 100 µM | HL-60 > 100 µM | RPMI-8226 > 100 µM | U-251 > 100 µM | NCI-H522 > 100 µM | SK-MEL-2 > 100 µM | EKVX > 100 µM | SK-OV-3 > 100 µM | IGROV-1 > 100 µM | OVCAR-4 > 100 µM | XF498 > 100 µM | SNB-78 > 100 µM | SK-MEL-5 62.4 µM | M19-MEL > 100 µM | A549 > 100 µM

CC(C)N(C(=O)C12C3C4C5C3C1(C(=O)N(C(C)C)C(C)C)C5C42)C(C)C (stereo unspecified)
inactive: K562 > 39.2 µM | SF-539 > 100 µM | HL-60 > 37.6 µM | RPMI-8226 > 44.7 µM | U-251 > 100 µM | NCI-H522 > 100 µM | SK-MEL-2 > 100 µM | Malme-3M > 100 µM | EKVX > 100 µM | SK-OV-3 > 100 µM | IGROV-1 > 100 µM | OVCAR-4 > 100 µM | XF498 > 100 µM | SNB-78 > 100 µM | SK-MEL-5 > 100 µM | M19-MEL > 100 µM | A549 > 58.9 µM | HCC 2998 > 100 µM

CN1C(=O)C(=CN)C(=O)N(C)C1=O
inactive: K562 > 100 µM | HL-60 > 100 µM | RPMI-8226 > 100 µM | U-251 > 100 µM | NCI-H522 > 100 µM | SK-MEL-2 > 100 µM | Malme-3M > 100 µM | EKVX > 100 µM | OVCAR-4 > 100 µM | XF498 > 100 µM | SNB-78 > 100 µM | SK-MEL-5 > 100 µM | M19-MEL > 100 µM | A549 > 100 µM | HCC 2998 > 100 µM

CC1CC(C2=CC=CCS2)=Nc2ccccc2S1 (stereo unspecified)
inactive: K562 > 100 µM | SF-539 > 100 µM | HL-60 > 100 µM | RPMI-8226 97.5 µM | U-251 > 100 µM | NCI-H522 92.3 µM | SK-MEL-2 > 100 µM | Malme-3M > 100 µM | EKVX > 100 µM | SK-OV-3 > 100 µM | IGROV-1 > 100 µM | OVCAR-4 > 100 µM | XF498 > 100 µM | SNB-78 > 100 µM | SK-MEL-5 > 100 µM | M19-MEL > 100 µM | A549 > 100 µM | HCC 2998 80.4 µM

C/N=C(\N=c1/ss/c(=N\C)n1C)N(C)C.[O-][Cl+3]([O-])([O-])O
inactive: K562 40.7 µM | SF-539 79.1 µM | HL-60 43.5 µM | RPMI-8226 74.6 µM | U-251 > 100 µM | NCI-H522 76 µM | EKVX > 100 µM | SK-OV-3 > 100 µM | IGROV-1 > 100 µM | OVCAR-4 > 100 µM | XF498 > 100 µM | SK-MEL-5 > 100 µM | M19-MEL > 100 µM | A549 > 100 µM | HCC 2998 > 100 µM

CCOc1ccc(NC(=O)CC#N)cc1
inactive: K562 > 100 µM | HL-60 > 100 µM | U-251 > 100 µM | NCI-H522 > 100 µM | SK-MEL-2 > 100 µM | Malme-3M > 100 µM | EKVX > 100 µM | SK-OV-3 > 100 µM | IGROV-1 > 100 µM | OVCAR-4 > 100 µM | XF498 > 100 µM | SNB-78 > 100 µM | SK-MEL-5 > 100 µM | M19-MEL > 100 µM | A549 > 100 µM | HCC 2998 6.79 µM

CC1=C(C(=O)CC(=O)C(=O)Nc2ccc(C)c(C)c2)Sc2ccccc2N1
inactive: SF-539 > 100 µM | RPMI-8226 > 100 µM | U-251 > 100 µM | NCI-H522 > 100 µM | Malme-3M > 100 µM | EKVX > 100 µM | SK-OV-3 > 100 µM | IGROV-1 > 100 µM | OVCAR-4 > 100 µM | XF498 > 100 µM | SNB-78 > 100 µM | SK-MEL-5 > 100 µM | M19-MEL > 100 µM | A549 > 100 µM | HCC 2998 > 100 µM

CCOc1ccccc1NC(=O)C(=O)Cc1nc2ccccc2s1
inactive: SF-539 > 100 µM | HL-60 > 100 µM | U-251 > 100 µM | NCI-H522 > 100 µM | SK-MEL-2 > 100 µM | Malme-3M > 100 µM | EKVX > 100 µM | SK-OV-3 > 100 µM | IGROV-1 > 100 µM | OVCAR-4 90.4 µM | XF498 > 100 µM | SNB-78 > 100 µM | SK-MEL-5 > 100 µM | M19-MEL > 100 µM | A549 > 100 µM | HCC 2998 > 100 µM

O=C1C(Cl)C(c2ccccc2)N1n1cnc2ccccc2c1=O (stereo unspecified)
inactive: K562 > 100 µM | HL-60 > 100 µM | RPMI-8226 54.2 µM | U-251 > 100 µM | NCI-H522 55.3 µM | SK-MEL-2 > 100 µM | Malme-3M > 100 µM | EKVX 44.2 µM | SK-OV-3 74.6 µM | IGROV-1 > 100 µM | OVCAR-4 > 100 µM | XF498 > 100 µM | SNB-78 > 100 µM | SK-MEL-5 > 100 µM | M19-MEL > 100 µM | A549 > 100 µM | HCC 2998 > 100 µM
